A short description of assay [1]: viability loss in THP-1 monocytes – THP-1 cells, cytotoxicity control for Vif-APOBEC3G degradation inhibitor project, dose response (AID 1117359). The assay is classed as functional. The settings on record: THP-1.
Assay [2] concerns the target Cytochrome P450 2C9 (Homo sapiens, UniProt P11712).
Assay [3] in a line: viability loss in human Jurkat cells – cell-based, luminescence, cytotoxicity control for P. falciparum gametocyte viability project, dose response (AID 1117277).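 Note: potency reflects loss of cellular ATP meaning fewer viable cells.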 Type of assay: functional.
The nature of assay [4]: viability inhibitors of stage V gametocytes – luminescence, dose response (AID 1117278).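 Note: gametocytes exposed to compound for 24 hours.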 The assay is classed as functional, cell-based.
Assay [5] has as its target T1, Protein RecA (Mycobacterium tuberculosis, UniProt P9WHJ3).
T1 sequence (P9WHJ3 whole entry): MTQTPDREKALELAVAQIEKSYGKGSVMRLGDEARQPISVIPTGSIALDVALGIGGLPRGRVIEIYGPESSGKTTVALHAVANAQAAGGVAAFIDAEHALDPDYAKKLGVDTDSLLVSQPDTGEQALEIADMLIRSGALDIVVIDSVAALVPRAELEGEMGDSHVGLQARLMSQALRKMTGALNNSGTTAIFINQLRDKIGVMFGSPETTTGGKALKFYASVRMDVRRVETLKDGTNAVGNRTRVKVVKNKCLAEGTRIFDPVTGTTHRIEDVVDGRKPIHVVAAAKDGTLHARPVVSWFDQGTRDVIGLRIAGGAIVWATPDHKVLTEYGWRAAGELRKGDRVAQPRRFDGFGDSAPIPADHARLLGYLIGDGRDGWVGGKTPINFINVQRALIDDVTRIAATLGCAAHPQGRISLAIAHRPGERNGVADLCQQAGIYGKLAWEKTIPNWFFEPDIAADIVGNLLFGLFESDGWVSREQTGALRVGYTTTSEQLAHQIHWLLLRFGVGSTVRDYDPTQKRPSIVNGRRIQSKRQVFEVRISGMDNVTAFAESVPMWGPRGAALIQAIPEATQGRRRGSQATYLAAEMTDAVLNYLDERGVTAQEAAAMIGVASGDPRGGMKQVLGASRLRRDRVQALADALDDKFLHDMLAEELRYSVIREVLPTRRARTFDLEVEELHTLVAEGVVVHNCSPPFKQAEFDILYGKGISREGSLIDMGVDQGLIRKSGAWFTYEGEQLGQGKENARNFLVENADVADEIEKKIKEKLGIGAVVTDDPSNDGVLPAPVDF
The assay can be described thus: Fluorescence Cell-Free Homogeneous Dose Retest to Identify Inhibitors of RecA-Intein Splicing Activity. [Related pubchem assays (depositor defined):AID2097, AID2223, AID489010, AID492950]. Type of assay: functional.

For assay [6], the target named is T2, Mannose-6-phosphate isomerase (Homo sapiens, UniProt P34949).
T2 sequence (P34949 whole entry): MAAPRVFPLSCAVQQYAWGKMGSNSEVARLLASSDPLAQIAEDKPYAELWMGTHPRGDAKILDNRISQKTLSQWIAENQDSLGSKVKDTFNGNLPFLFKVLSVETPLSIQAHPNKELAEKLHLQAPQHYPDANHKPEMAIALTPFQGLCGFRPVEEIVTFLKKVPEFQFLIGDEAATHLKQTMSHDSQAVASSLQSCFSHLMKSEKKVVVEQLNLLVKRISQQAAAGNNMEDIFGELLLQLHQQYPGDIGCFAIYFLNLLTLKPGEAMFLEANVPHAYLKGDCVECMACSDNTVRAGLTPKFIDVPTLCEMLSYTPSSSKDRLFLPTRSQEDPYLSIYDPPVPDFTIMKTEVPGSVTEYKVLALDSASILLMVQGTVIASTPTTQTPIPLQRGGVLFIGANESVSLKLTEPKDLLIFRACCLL
The assay can be described thus: MPI inhibition at elevated mannose 6-phosphate – biochemical, fluorescence intensity, high mannose 6-phosphate, primary screen (AID 1220).

For assay [7], the target named is T3, Apoptotic protease-activating factor 1 (Homo sapiens, UniProt O14727).
T3 sequence (O14727 whole entry): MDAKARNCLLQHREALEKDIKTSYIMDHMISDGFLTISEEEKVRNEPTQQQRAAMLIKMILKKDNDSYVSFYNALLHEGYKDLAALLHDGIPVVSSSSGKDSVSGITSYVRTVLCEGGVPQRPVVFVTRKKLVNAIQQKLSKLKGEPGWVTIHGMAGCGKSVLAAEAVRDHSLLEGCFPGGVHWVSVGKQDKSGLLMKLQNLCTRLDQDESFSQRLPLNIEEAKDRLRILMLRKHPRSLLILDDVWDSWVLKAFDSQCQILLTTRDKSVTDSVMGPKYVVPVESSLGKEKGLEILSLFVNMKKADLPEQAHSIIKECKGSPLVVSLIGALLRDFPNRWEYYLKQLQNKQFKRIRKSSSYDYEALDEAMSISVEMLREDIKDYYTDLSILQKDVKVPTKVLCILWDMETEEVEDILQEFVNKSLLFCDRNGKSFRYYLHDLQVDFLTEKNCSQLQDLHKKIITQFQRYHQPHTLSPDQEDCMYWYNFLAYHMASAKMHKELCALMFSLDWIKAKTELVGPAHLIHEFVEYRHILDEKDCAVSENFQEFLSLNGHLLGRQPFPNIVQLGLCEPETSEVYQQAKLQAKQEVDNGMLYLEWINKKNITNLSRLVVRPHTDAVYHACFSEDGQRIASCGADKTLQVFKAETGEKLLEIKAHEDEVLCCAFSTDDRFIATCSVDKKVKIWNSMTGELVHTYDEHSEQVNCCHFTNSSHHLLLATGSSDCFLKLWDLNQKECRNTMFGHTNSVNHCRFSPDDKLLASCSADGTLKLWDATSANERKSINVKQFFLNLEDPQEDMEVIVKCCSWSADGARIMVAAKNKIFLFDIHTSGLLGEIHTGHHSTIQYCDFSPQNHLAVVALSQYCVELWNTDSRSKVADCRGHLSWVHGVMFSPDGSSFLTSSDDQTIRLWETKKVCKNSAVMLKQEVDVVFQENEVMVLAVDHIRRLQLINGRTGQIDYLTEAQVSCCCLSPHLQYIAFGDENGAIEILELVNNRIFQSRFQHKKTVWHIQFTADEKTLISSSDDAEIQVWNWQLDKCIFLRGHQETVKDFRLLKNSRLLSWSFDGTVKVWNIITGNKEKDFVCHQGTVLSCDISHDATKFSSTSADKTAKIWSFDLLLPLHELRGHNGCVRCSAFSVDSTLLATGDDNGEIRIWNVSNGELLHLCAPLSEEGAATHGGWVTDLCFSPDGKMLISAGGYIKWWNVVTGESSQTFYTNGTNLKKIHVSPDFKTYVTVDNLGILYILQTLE
The assay is classed as functional.

In assay [8] the target is Glucose-6-phosphate 1-dehydrogenase (Homo sapiens, UniProt P11413). The assay can be described thus: inhibition of Homo sapiens G6PD, dose series – biochemical, fluorescence, selectivity assay for P. falciparum G6PD inhibitor project, dose response (AID 504792). The assay is classed as functional.
In assay [9] the target is Luciferin 4-monooxygenase (Photinus pyralis, UniProt P08659). The assay can be described thus: Counter Screen for Luciferase-based Assay Positives. [Related pubchem assays: 620, 618, 411 ]. A general note: A counterscreen serves to expose hits that act by an unwanted route or on another target.
Assay [10] has as its system HT-1080. Briefly: HT1080 cell viability loss – fluorescence readout (AID 620). The assay is classed as functional, cell-based. The settings on record: Homo sapiens.
Assay [11] is described as follows: HIV-1 Vif–A3G interaction blockers – biochemical, TR-FRET, GST-Vif 1-94, biotin-A3G peptide, dose response retest, primary screen (AID 1117319).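 Note: TR-FRET signal of purified GST-Vif binding a biotinylated A3G peptide; inhibitors lower the FRET signal by blocking Vif and A3G binding.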 Type of assay: functional.
For assay [12], the system named is Streptococcus. Briefly: GAS UMAA2166 growth inhibition – luminescence, BacTiterGlo, counter-screen for streptokinase expression inhibitor project, dose response (AID 1915).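 Note: potency for reduction of bacterial viability or growth.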 Type of assay: functional, organism-based.
Assay [13] deals with T4, Streptokinase A (Streptococcus pyogenes serotype M1, UniProt P10520).
T4 sequence (P10520 whole entry): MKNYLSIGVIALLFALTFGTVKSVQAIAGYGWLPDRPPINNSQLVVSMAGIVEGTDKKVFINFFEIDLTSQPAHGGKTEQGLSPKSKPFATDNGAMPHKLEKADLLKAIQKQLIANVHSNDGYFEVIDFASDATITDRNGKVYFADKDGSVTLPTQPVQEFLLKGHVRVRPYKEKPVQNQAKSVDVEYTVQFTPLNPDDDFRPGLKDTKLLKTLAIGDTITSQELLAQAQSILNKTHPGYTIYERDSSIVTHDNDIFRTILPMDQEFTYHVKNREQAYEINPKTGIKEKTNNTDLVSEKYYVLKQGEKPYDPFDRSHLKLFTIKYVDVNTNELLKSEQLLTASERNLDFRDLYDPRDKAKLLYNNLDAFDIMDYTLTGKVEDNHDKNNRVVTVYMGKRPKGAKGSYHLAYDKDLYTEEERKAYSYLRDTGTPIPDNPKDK
The assay can be described thus: viability-normalized secreted streptokinase activity reduction – plasminogen activation absorbance, OD405, dose response (AID 1914).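 Note: secreted streptokinase activity via plasminogen activation per viability signal from cell pellet.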 The assay is classed as functional, Streptococcus pyogenes M1 GAS.

In assay [14] the test system is Streptococcus sp. 'group A'. Briefly: Streptococcus pyogenes SK(-)GAS viability under kanamycin – luminescence, BacTiterGlo, confirmation, counter-screen for streptokinase expression inhibitor project, dose response (AID 1900). Type of assay: functional, organism-based.
Assay [15] concerns the target Estrogen receptor beta (Homo sapiens, UniProt Q92731).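 Note: recombinant ER-beta bound to coactivator SRC1 peptide in presence of estradiol agonist; inhibitors block coactivator peptide binding and lower the FRET signal.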
Assay [16] in a line: HEK-293T cell viability reduction – luminescence, B-cell screen hits, cytotoxicity control for BCR NF-kB inhibitor project, dose response (AID 489021).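 Note: HEK-293T cells carrying an NF-kB luciferase reporter; cells exposed to compound for about 14 hours before viability readout.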 Type of assay: functional, cell-based.
Assay [17] in a line: A Cell Based Secondary Assay To Explore Cytotoxicity of Compounds that Sensitize Mycobacterium Tuberculosis to Beta-Lactam Antibiotics. Type of assay: functional.
The target of assay [18] is T5, COUP transcription factor 2 (Homo sapiens, UniProt P24468).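 Note: HEK293 cells transiently cotransfected with COUP-TFII expression vector and reporter; luciferase reporter luminescence driven by COUP-TFII from the pX2-168 reporter plasmid.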
T5 sequence (P24468 whole entry): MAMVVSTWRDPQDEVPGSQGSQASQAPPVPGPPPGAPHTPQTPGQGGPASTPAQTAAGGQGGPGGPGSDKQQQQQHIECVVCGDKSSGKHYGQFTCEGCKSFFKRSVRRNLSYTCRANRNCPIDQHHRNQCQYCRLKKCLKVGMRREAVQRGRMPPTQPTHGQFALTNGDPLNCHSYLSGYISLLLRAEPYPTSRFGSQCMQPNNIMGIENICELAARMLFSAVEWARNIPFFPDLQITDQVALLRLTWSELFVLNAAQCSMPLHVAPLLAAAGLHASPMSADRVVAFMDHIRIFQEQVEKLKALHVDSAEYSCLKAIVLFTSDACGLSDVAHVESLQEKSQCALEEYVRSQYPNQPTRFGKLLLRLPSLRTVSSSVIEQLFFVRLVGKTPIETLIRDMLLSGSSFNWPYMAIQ
Briefly: Luminescence-based cell-based high throughput dose response assay to identify inhibitors of COUP-TFII (NR2F2). Type of assay: functional.

One may read the CC50 as the concentration at which the toxic effect on the cells reaches its halfway point. By AC50 is commonly meant the midpoint of the concentration-response curve, whichever way the signal moves. One may read the IC50 as the concentration needed to halve the response being measured. Broadly, the EC50 is the concentration needed to bring the measured effect to its halfway point.

SMILES strings stand for the structures. Activity calls are given as the source filed them.

Sequence of Estrogen receptor beta (Q92731 whole entry): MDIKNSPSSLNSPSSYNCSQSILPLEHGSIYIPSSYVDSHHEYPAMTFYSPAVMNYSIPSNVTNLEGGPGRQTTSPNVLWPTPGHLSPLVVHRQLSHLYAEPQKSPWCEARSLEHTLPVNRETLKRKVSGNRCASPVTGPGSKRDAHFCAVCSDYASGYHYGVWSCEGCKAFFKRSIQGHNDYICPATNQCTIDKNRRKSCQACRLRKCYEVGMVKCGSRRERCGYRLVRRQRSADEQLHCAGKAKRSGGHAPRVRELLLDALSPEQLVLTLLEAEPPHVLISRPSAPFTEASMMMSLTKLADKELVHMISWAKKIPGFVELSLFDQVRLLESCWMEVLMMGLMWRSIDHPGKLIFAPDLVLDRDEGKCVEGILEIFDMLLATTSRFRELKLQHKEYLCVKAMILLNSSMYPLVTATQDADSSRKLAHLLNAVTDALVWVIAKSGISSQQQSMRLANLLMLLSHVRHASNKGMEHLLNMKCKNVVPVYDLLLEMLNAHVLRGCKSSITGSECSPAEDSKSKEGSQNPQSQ
Sequence of Cytochrome P450 2C9 (P11712 whole entry): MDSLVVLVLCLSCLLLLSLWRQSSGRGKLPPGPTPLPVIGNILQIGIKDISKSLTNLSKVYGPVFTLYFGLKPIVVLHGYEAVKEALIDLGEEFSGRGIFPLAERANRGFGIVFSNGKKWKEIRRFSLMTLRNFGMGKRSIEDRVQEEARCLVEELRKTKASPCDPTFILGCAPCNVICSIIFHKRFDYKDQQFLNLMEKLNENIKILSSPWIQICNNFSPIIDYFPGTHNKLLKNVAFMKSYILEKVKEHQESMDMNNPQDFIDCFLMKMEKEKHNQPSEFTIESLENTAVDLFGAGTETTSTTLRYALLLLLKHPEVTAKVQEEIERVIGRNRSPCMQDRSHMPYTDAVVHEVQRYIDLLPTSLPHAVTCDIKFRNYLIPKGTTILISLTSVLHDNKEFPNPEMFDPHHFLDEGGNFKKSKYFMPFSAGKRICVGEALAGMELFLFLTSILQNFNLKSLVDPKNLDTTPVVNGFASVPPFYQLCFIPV
Sequence of Luciferin 4-monooxygenase (P08659 whole entry): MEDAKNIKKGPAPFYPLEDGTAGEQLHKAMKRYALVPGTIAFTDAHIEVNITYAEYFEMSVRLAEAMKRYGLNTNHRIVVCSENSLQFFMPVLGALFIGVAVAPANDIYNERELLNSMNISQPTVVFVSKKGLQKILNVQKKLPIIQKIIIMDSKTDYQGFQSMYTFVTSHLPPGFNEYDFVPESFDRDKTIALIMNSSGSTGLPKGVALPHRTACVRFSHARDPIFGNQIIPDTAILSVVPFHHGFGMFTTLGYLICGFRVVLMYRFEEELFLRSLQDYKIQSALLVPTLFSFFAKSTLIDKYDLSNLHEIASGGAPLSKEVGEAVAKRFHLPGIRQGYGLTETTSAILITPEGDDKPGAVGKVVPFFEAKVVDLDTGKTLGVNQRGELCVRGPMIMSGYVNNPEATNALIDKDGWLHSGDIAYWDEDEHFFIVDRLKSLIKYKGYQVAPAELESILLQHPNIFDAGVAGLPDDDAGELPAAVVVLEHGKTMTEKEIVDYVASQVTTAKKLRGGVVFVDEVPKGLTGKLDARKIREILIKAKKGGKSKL
Sequence of Glucose-6-phosphate 1-dehydrogenase (P11413 whole entry): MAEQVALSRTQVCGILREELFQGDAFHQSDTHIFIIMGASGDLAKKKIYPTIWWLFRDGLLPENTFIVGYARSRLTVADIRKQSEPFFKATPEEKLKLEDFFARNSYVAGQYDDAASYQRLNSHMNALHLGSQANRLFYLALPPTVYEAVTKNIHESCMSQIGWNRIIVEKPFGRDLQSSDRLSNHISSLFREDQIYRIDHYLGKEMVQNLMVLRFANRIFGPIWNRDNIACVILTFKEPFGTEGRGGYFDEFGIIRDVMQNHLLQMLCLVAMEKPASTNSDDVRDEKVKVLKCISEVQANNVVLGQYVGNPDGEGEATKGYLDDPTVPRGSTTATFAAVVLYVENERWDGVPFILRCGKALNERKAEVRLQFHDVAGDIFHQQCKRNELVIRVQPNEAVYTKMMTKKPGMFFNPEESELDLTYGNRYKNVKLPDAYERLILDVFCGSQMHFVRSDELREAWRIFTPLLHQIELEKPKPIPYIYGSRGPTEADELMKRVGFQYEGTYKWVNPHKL

Regarding `CCOC(=O)c1nc(O)c2c(C)c(C)sc2n1`, in [1], the CC50 was > 40 µM (active). Also, the AC50 in [2] is 20 µM (inconclusive). `CCC(C)Sc1nc2c(c(=O)[nH]c(=O)n2C)n1CC(O)COc1ccccc1C` (configuration not stated): the values for the IC50 in assay [3] and in [4] were > 83.3 µM (inactive) and > 109 µM (inactive), respectively.

For the compound `CCCCCn1c(N)c(C(=O)NCc2cccs2)c2nc3ccccc3nc21`, the EC50 in assay [5] was 1.24 µM (active). The IC50 was > 50 µM (not active) in [6] and 53.7 µM (active) in assay [7]. `CCN(CC)CCCN1C(=O)CSC1c1ccc2c(c1)OCO2` (configuration not stated): the IC50 is > 83.3 µM (inactive) in assay [3] and > 109 µM (inactive) in assay [4].

For the compound `CCC(c1ccc(O)c(O)c1)C(CC)c1ccc(O)c(O)c1` (configuration not stated), the CC50 in assay [1] is 11.7 µM (active). The IC50 in [8] is > 80 µM (inactive).

On to `Cc1c(C(=O)NCC2CCCO2)oc2ccc3c(c12)C(=O)CC(C)(C)O3` (configuration not stated), for which the EC50 in assay [9] was 540 nM (active); in [10], > 50 µM (not active). On to `CCC(Sc1nc2cc(OC)c(OC)cc2c(=O)n1Cc1ccco1)C(=O)NCCOC` (configuration not stated), for which the IC50 in assay [11] is > 100 µM (active).

Regarding `COC(=O)c1c[nH]nc1N=C(S)Nc1ccc(C)cc1Cl`, the EC50 was > 150 µM (not active) in [12], 56.8 µM (active) in [13] and 51.6 µM (active) in [14]. The IC50 in assay [11] is > 100 µM (active). Consider `CN(CC(O)COc1ccc(S(=O)(=O)N2CCOCC2)cc1)C1CCCCC1` (configuration not stated), for which the IC50 in [15] was > 50 µM (not active). As for `COc1ccc(CC(=O)Nc2ccc(C(N)=O)cc2)cc1`, the values for the IC50 in assay [3] and in [4] were > 83.3 µM (inactive) and > 109 µM (inactive), respectively. In the case of `O=C(Cn1cnc2c(nnn2Cc2ccc(Cl)cc2)c1=O)NCc1ccco1`, the IC50 in assay [11] was > 100 µM (active). `CC(=O)c1sc(NC(=O)C2CCN(C(=O)c3ccccc3C)CC2)nc1-c1ccccc1`: in [1], the CC50 was > 40 µM (active).

On to `COCCCn1c(=O)/c(=C\c2cccc(OC)c2OC)s/c1=C(/C#N)C(=O)Nc1ccc(C(=O)O)cc1`, for which, in assay [16], the IC50 was > 80 µM (inactive). In assay [17], the CC50 was > 40 µM (active). `O=C(CSc1cc(Cl)ccc1Cl)N/N=C/c1ccc[nH]1`: the IC50 in assay [18] was 15 µM (inactive).

For `Cc1ccc2c(c1)N=C(c1ccc(Cl)cc1)CO2`, in assay [11], the IC50 was > 100 µM (active).

For the origin of these results see ChEMBL document CHEMBL1201862, “PubChem BioAssay data set” (2004).
